# Experimental data reported in patent US20070225355A1, “Dietary Compositions for Enhancing Metabolism and Reducing Reactive Oxygen Species” (Elixirin Corporation, priority 2004, published 2007).
# Tests used:
# oxidation level of DNA = test: Oxidation level of DNA in hippocampus sections (anti-8-hydroxy-2'-deoxyguanosine/8-hydroxyguanosine immunocytochemistry); assay type: in vivo; conditions: rat brain hippocampus sections, fed 7 weeks; mean of 5 animals; standard deviation about 15%
# From the text: The rats in the experimental group (5 each) were fed either 0.5% (wt/vol) acetyl-L-camitine in water, 1.0% (wt/vol) polyphenol in water; 0.2% (wt/wt) lipoic acid in AIN93M diet, or a combination of the above. Rats were acclimated for one week before experiments. Rats were fed for the above treatment for 7 weeks before tests. Control rats were fed with water and AIN93M diet only. For assaying DNA oxidation, rats from each treatment group (5 animals per group) was anesthetized with ether and perfused with paraformaldehyde. The brain was removed and postfixed for paraffin sections. Sections of hippocampus were incubated with anti-8-hydroxy-2′-deoxyguanosine/8-hydroxyguanosine and visualized by using standard immunocytochemical methods. Quantification of oxidation was done as described in Liu, J K, et al., (Proc. Natl. Acad. Sci USA, 99:1356-2361, 2002). Values are a mean of 5 animals. The standard deviation is about 15%.
# Fischer 344 male rats = test: Morris water maze spatial memory test in rats; assay type: in vivo, rat; conditions: fed 7 weeks, 4 consecutive days, 4 trials per day, averaged, standard deviation around 20%
# From the text: FIG. 1 of 2 depicts measurements of spatial memory in (Fischer 344 male rats) subjected to a water maze test, after treatment with carnitine, lipoic acid, and/or polyphenol. […] The Morris maze task tests spatial memory by requiring rats to fmd a submerged platform in a pool of water using external visual cues (Morris, R. 1984; J. Neurosci. Methods, 11:47-60; Schenk, F. and Morris, R, Exp. Brain Res. 58:11-28, 1985). The rats in the experimental group (5 each) were fed either 0.5% (wt/vol) acetyl-L-carnitine in water, 1.0% (wt/vol) polyphenol in water; 0.2% (wt/wt) lipoic acid in AIN93M diet, or a combination of the above. Rats were acclimated for one week before experiments. Rats were fed for the above treatment for 7 weeks before tests. Trials (4 consecutive days, 4 trials per day) were conducted and the results averaged. The standard deviation is around 20%. Control rats were fed with water and AIN93M diet only.
smiles,measurement,setting,value
O=C(O)CCCC[C@@H]1CCSS1 (racemic) [lipoic acid],DNA oxidation level compared with rats having no treatment,oxidation level of DNA,~82%
same,"mastery of the water maze, faster over no treatment",Fischer 344 male rats,~79%
